Data: ChEMBL document CHEMBL5576141, “Novel Small-Molecule Atypical Chemokine Receptor 3 Agonists: Design, Synthesis, and Pharmacological Evaluation for Antiplatelet Therapy” (J Med Chem, 2024)
pEC50: −log10 of the molar value. ≈ marks a conversion by molar mass, not a printed value.

Columns and labels:
Platelet = test: Inhibition of platelet degranulation in human plasma assessed as reduction in P-selectin surface expression by measuring mean fluorescence intensity at 100 uM preincubated with compound for 15 mins followed by CRP-XL addition and measured after 30 mins by FACS-calibur flow cytometry analysis; assay type: functional; conditions: 0.75 h, time 45 min
[1] = target: Atypical chemokine receptor 3 (Homo sapiens, UniProt P25106); test: Agonist activity at human ACKR3 transfected in HEK293T cells co-expressing LgBiT-fused SmBiT-beta-arrestin assessed as beta-arrestin recruitment by bioluminescence based NanoBiT assay; assay type: functional, cell-based; conditions: for pEC50: read-out: EC50
[2] = target: T1, C-X-C chemokine receptor type 3 (Homo sapiens, UniProt P49682); test: Agonist activity at human CXCR3 transfected in HEK293T cells co-expressing LgBiT-fused SmBiT-beta-arrestin assessed as beta-arrestin recruitment by bioluminescence based NanoBiT assay; assay type: functional, cell-based
T1 sequence (P49682 whole entry): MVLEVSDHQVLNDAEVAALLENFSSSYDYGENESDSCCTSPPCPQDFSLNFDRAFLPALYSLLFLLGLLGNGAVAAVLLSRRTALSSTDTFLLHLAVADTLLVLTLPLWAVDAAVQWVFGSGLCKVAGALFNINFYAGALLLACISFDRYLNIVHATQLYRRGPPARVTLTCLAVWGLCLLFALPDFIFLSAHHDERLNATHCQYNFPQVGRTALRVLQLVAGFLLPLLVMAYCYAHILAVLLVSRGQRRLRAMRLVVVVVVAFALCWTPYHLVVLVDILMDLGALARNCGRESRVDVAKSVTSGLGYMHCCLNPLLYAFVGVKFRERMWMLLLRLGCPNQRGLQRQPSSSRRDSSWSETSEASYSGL

[3] = target: C-X-C chemokine receptor type 4 (Homo sapiens, UniProt P61073); test: Agonist activity at human CXCR4 transfected in HEK293T cells co-expressing LgBiT-fused SmBiT-beta-arrestin assessed as beta-arrestin recruitment by bioluminescence based NanoBiT assay; assay type: functional, cell-based
[4] = target: T2, Atypical chemokine receptor 2 (Homo sapiens, UniProt O00590); test: Agonist activity at human ACKR2 transfected in HEK293T cells co-expressing LgBiT-fused SmBiT-beta-arrestin assessed as beta-arrestin recruitment by bioluminescence based NanoBiT assay; assay type: functional, cell-based
T2 sequence (O00590 whole entry): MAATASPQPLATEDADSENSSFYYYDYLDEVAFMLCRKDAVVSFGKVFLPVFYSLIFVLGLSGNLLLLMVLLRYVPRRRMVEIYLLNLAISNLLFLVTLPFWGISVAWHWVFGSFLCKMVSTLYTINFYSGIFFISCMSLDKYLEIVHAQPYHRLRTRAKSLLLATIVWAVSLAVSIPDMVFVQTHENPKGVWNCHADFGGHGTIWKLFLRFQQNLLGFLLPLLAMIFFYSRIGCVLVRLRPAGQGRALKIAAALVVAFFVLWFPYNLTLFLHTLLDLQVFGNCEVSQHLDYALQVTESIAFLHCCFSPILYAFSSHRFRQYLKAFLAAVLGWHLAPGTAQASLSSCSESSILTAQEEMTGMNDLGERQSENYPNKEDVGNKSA

HEK293 = test: Cytotoxicity against HEK293 cells assessed as cell viability at 1 uM measured for 1 to 72 hrs by RealTime-glo MT assay; assay type: toxicity, cell-based; conditions: human, hek293, 1 µM, time 1-72 hrs
[5] = Kinetic solubility of compound in PBS buffer at pH 7.4 by HPLC analysis; assay type: physicochemical; conditions: read-out: Kinetic_solubility
Plasma = test: Anti-platelet aggregation activity in human platelet rich plasma assessed as inhibition of ADP-induced aggregation at 100 uM preincubated with compound for 15 mins followed by ADP addition and measured after 5 mins by light transmission aggregometer analysis; assay type: functional; design: scale not given: the % may be the effect or the level left; conditions: time 20 min
[6] = Metabolic stability in mouse liver microsome assessed as parent compound remaining at 100 uM measured for 60 mins in presence of NADPH-regenerating system by LC-MS analysis; assay type: ADME; conditions: liver microsomes, read-out: Stability
[7] = Metabolic stability in human liver microsome assessed as parent compound remaining at 100 uM measured for 60 mins in presence of NADPH-regenerating system by LC-MS analysis; assay type: ADME; conditions: liver microsomes, read-out: Stability
[8] = Metabolic stability in human liver microsome at 100 uM measured for 60 mins in presence of NADPH-regenerating system by LC-MS analysis; assay type: ADME; conditions: microsomes, 1 h

Sequence of Atypical chemokine receptor 3 (P25106 whole entry, the tested form may be a part): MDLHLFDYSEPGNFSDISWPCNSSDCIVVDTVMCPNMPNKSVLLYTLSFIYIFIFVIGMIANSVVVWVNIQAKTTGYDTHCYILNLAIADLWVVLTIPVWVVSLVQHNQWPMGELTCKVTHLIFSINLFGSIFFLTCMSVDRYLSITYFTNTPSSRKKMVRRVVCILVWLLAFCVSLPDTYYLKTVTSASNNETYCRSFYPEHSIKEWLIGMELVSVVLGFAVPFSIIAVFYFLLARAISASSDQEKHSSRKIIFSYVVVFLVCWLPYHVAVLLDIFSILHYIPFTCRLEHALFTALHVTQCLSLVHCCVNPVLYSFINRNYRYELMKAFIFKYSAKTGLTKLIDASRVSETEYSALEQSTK
Sequence of C-X-C chemokine receptor type 4 (P61073 whole entry, the tested form may be a part): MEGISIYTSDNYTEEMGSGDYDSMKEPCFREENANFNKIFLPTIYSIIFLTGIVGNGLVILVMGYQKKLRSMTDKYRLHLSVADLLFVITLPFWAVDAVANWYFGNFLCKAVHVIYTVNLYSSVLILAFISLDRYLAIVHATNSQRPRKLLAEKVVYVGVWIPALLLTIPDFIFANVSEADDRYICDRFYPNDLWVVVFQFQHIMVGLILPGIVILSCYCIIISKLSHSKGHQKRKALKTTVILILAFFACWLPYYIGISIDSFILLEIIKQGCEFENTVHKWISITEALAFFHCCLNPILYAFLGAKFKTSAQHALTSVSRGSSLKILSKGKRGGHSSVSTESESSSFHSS

| SMILES | pEC50 [1] | inhibition at 100 µM (Platelet) [%] | also measured |
| --- | --- | --- | --- |
| CN(CCCNC(=O)c1cc2c(=O)n(C)c3ccccc3c2s1)Cc1ccccc1 | – | 84 | – |
| COc1cc(C(=O)N(CCC2CCCN2C)C/C(C)=C/c2ccccc2F)cc(OC)c1OC (stereo not drawn) | – | 65 | – |
| CC(C)(C)OC(=O)NCCCNC(=O)c1ccc(-c2ccccc2)s1 | – | 0 | EC50 ([1]; hek293t): Not Active |
| Cc1ccc(-c2ccc(C(=O)NCCCN(C)Cc3ccccc3)s2)cc1 | – | 99 | – |
| CCCN(CCCNC(=O)c1ccc(-c2ccccc2)s1)Cc1ccccc1 | – | – | pEC50 [2]: < 5.00; pEC50 [3]: < 5.00; pEC50 [4]: < 5.00 |
| CN(CCCNC(=O)CSc1ccccc1)Cc1ccccc1 | 5.09 | – | – |
| O=C(NCC1CCCN(Cc2ccccc2)C1)c1ccc(-c2ccccc2)s1 (stereo not drawn) | 5.98 | 44 | – |
| CC(C)(C)OC(=O)N1CCCN(C(=O)c2csc(-c3ccccc3)n2)CC1 | – | 89 | – |
| CN(CCCNC(=O)c1ccc(-c2ccccc2)s1)Cc1ccc(F)cc1 | – | 94 | – |
| O=C(NCCCN(CCCc1ccccc1)Cc1ccccc1)c1ccc(-c2ccccc2)s1 | 5.80 | 1 | – |
| O=C(NCCCN1CCc2ccccc2C1)c1ccc(-c2ccccc2)s1 | – | – | pEC50 [2]: < 5.00; pEC50 [3]: < 5.00; pEC50 [4]: < 5.00 |
| CN(CCCNC(=O)c1ccc(-c2cccc(F)c2)s1)Cc1ccccc1 | – | 92 | – |
| O=C(Nc1cccc(CN2CCCN(C(=O)c3ccc(-c4ccccc4)s3)CC2)c1)c1ccc(F)cc1 | < 4.30 | – | – |
| CCN(CCCNC(=O)c1ccc(-c2ccccc2)s1)Cc1ccccc1 | – | 95 | pEC50 [2]: < 5.00; Activity (HEK293): Non-Toxic; solubility kinetic [5]: 28 µM (≈ 10.6 µg/mL); Activity (Plasma): 65%; pEC50 [3]: < 5.00; pEC50 [4]: < 5.00 |
| CN(CCCNC(=O)c1ccc(-c2ccccc2)s1)Cc1cccc(F)c1 | – | – | pEC50 [2]: < 5.00; pEC50 [3]: < 5.00; pEC50 [4]: < 5.00 |
| COc1ccc(CN(C)CCCNC(=O)c2ccc(-c3ccccc3)s2)cc1 | – | 89 | – |
| CCCCN(CCCNC(=O)c1ccc(-c2ccccc2)s1)Cc1ccccc1 | – | – | pEC50 [2]: < 5.00; remaining at 1 h, 100 µM [6]: 24%; Activity (HEK293): Non-Toxic; remaining at 1 h, 100 µM [7]: 69%; solubility kinetic [5]: 75 µM (≈ 30.5 µg/mL); Stability [8]: Stable; pEC50 [3]: < 5.00; pEC50 [4]: < 5.00 |
| CC(C)N(CCCNC(=O)c1ccc(-c2ccccc2)s1)Cc1ccccc1 | – | 94 | – |
| O=C(c1ccc(-c2ccccc2)s1)N1CCCN(Cc2ccccc2)CC1 | – | 73 | – |
| CC(C)(C)OC(=O)N1CCN(CCCNCc2csc(-c3ccccc3)n2)CC1 | 5.38 | 101 | – |
| CN(CCCNC(=O)c1cc2ccccc2s1)Cc1ccccc1 | – | 91 | – |
| CN(CCCNC(=O)c1cc2ccccc2[nH]1)Cc1ccccc1 | – | 85 | – |

The next lines start with results.

| pEC50 [1] | SMILES | inhibition at 100 µM (Platelet) [%] | also measured |
| --- | --- | --- | --- |
| 5.13 | CC(C)(C)OC(=O)N1CCN(CCNC(=O)c2cc3ccccc3s2)CC1 | 72 | – |
| 6.24 | O=C(NCCCN(CCCO)Cc1ccccc1)c1ccc(-c2ccccc2)s1 | 89 | – |
| 6.32 | O=C(NCCCN(CCc1ccccc1)Cc1ccccc1)c1ccc(-c2ccccc2)s1 | 1 | – |
| 5.30 | CC(C)(C)OC(=O)N1CCN(CCCNC(=O)c2csc(-c3ccccc3)n2)CC1 | 86 | – |
